Source: US20070281992A1, “COMBINATION OF GYRASE B INHIBITORS AND PROTEIN SYNTHESIS INHIBITORS AND USES THEREOF” (priority 2006, published 2007)
Like-named read-outs stand apart in the source and are kept apart here.

What was measured:
Type in all cases: cell-based
[1] = tested on: Methicillin-Resistant Staphylococcus aureus Isolates; test: MIC assay (NCCLS broth dilution), MRSA clinical isolates; conditions: Staphylococcus aureus; for MIC: read-out: Minimal Inhibitory Concentration; for MIC50 / MIC90: 52 MRSA isolates, combinations at 2.5:1, given as NB/partner
Method in brief: (§1)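 Broth microdilution MIC run per NCCLS M7-A6 guidelines in Mueller Hinton II broth, over 11 two-fold serial dilutions of test agent. Novobiocin/tetracycline and novobiocin/minocycline combinations were tested at a 2.5:1 ratio to mimic serum levels; vancomycin served as control agent.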

[2] = tested on: Vancomycin-intermediate Staphylococcus aureus Isolates; test: MIC assay (NCCLS broth dilution), VISA isolates; conditions: for MIC Range / MIC50: 2 VISA isolates, combinations at 2.5:1, given as NB/partner; for MIC / MIC50: Staphylococcus aureus; for MIC: read-out: Minimal Inhibitory Concentration
Method in brief: as §1

[3] = tested on: Unconfirmed Vancomycin-intermediate Staphylococcus aureus Isolates; test: MIC assay (NCCLS broth dilution), unconfirmed VISA isolates; conditions: Staphylococcus aureus; for MIC: read-out: Minimal Inhibitory Concentration; for MIC50: 6 unconfirmed VISA isolates (vancomycin MIC 4 ug/ml), combinations at 2.5:1
Method in brief: as §1

[4] = tested on: Vancomycin-intermediate Staphylococcus epidermidis Isolates; test: MIC assay (NCCLS broth dilution), VISE isolates; conditions: for MIC / MIC50: Staphylococcus epidermidis; for MIC: read-out: Minimal Inhibitory Concentration
Method in brief: as §1

[5] = tested on: Unconfirmed Vancomycin-intermediate Staphylococcus epidermidis Isolates; test: MIC assay (NCCLS broth dilution), unconfirmed VISE isolates; conditions: for MIC / MIC50: Staphylococcus epidermidis; for MIC: read-out: Minimal Inhibitory Concentration
Method in brief: as §1

[6] = tested on: Linezolid-Resistant Staphylococcus aureus Isolates; test: MIC assay (NCCLS broth dilution), LRSA isolates; conditions: for MIC / MIC50: Staphylococcus aureus; for MIC: read-out: Minimal Inhibitory Concentration
Method in brief: as §1

[7] = tested on: Enterococcus faecalis (ATCC 29212); test: MIC assay, quality control strain E. faecalis ATCC 29212; conditions: ATCC29212, E. faecalis ATCC 29212, repeat runs 22FEB06-09MAR06, combinations at 2.5:1, read-out: Minimal Inhibitory Concentration, quality control
Method in brief: as §1

[8] = Unconfirmed VISA isolate 2013, 03MAR06
[9] = Unconfirmed VISA isolate 2014, 03MAR06
[10] = Unconfirmed VISA isolate 2015, 03MAR06
[11] = Unconfirmed VISA isolate 2016, 03MAR06
[12] = Unconfirmed VISA isolate 2017, 03MAR06
[13] = Unconfirmed VISA isolate 2019, 03MAR06
[14] = 4 VISE isolates, combinations at 2.5:1
[15] = Unconfirmed VISE isolate 2024, 09MAR06
[16] = Unconfirmed VISE isolate 2025, 09MAR06
[17] = Unconfirmed VISE isolate 2026, 03MAR06
[18] = 3 unconfirmed VISE isolates, combinations at 2.5:1
[19] = 3 LRSA isolates, combinations at 2.5:1

Cc1onc(-c2ccccc2)c1C(=O)N[C@@H]1C(=O)N2[C@@H]1SC(C)(C)[C@@H]2C(=O)O [OX, oxacillin]
4 µg/mL: MIC ([1]; MRSA isolate 1023, 22FEB06) | MIC [3, 8] | MIC [3, 11] | MIC50 [3] | MIC [5, 16]
0.25 µg/mL: MIC [3, 12]
>32 µg/mL: MIC Range [2] | MIC Range [6, 19]
32 µg/mL: MIC ([1]; MRSA isolate 757, 24FEB06) | MIC ([1]; MRSA isolate 763, 22FEB06) | MIC ([1]; MRSA isolate 772, 22FEB06) | MIC ([1]; MRSA isolate 774, 24FEB06) | MIC ([1]; MRSA isolate 777, 24FEB06) | MIC ([1]; MRSA isolate 886, 24FEB06) | MIC ([1]; MRSA isolate 1010, 22FEB06) | MIC ([1]; MRSA isolate 1013, 22FEB06) | MIC ([1]; MRSA isolate 1014, 22FEB06) | MIC ([1]; MRSA isolate 1015, 22FEB06) | MIC ([1]; MRSA isolate 1021, 22FEB06) | MIC ([1]; MRSA isolate 1135, 22FEB06) | MIC ([1]; MRSA isolate 1136, 22FEB06) | MIC ([1]; MRSA isolate 1222, 03MAR06) | MIC ([1]; MRSA isolate 1222, 24FEB06) | MIC ([1]; MRSA isolate 1730, 24FEB06) | MIC ([1]; MRSA isolate 2011, 24FEB06) | MIC50 [1] | MIC [5, 17] | MIC50 [5, 18]
0.5 to 16 µg/mL: MIC Range [4, 14]
8 µg/mL: MIC ([1]; MRSA isolate 768, 22FEB06) | MIC ([1]; MRSA isolate 773, 24FEB06) | MIC ([1]; MRSA isolate 1004, 24FEB06) | MIC ([1]; MRSA isolate 1016, 22FEB06) | MIC ([1]; MRSA isolate 1022, 22FEB06) | MIC ([1]; MRSA isolate 1138, 22FEB06) | MIC ([4]; VISE isolate 2020, 09MAR06) | MIC [7]
2 µg/mL: MIC ([4]; VISE isolate 2023, 03MAR06) | MIC50 [4, 14]
> 32 µg/mL: MIC ([1]; MRSA isolate 758, 03MAR06) | MIC ([1]; MRSA isolate 758, 24FEB06) | MIC ([1]; MRSA isolate 760, 03MAR06) | MIC ([1]; MRSA isolate 760, 24FEB06) | MIC ([1]; MRSA isolate 765, 22FEB06) | MIC ([1]; MRSA isolate 766, 22FEB06) | MIC ([1]; MRSA isolate 771, 22FEB06) | MIC ([1]; MRSA isolate 775, 24FEB06) | MIC ([1]; MRSA isolate 776, 24FEB06) | MIC ([1]; MRSA isolate 778, 24FEB06) | MIC ([1]; MRSA isolate 887, 24FEB06) | MIC ([1]; MRSA isolate 888, 24FEB06) | MIC ([1]; MRSA isolate 889, 24FEB06) | MIC ([1]; MRSA isolate 1012, 22FEB06) | MIC ([1]; MRSA isolate 1137, 22FEB06) | MIC ([1]; MRSA isolate 1653, 03MAR06) | MIC ([1]; MRSA isolate 1661, 03MAR06) | MIC ([1]; MRSA isolate 1729, 03MAR06) | MIC ([1]; MRSA isolate 2009, 24FEB06) | MIC90 [1] | MIC ([2]; VISA isolate 2012, 03MAR06) | MIC ([2]; VISA isolate 2018, 03MAR06) | MIC50 [2] | MIC [3, 9] | MIC [3, 10] | MIC [3, 13] | MIC [5, 15] | MIC ([6]; LRSA isolate 1651, 24FEB06) | MIC ([6]; LRSA isolate 1652, 24FEB06) | MIC ([6]; LRSA isolate 1725, 24FEB06) | MIC50 [6, 19]
0.5 µg/mL: MIC ([4]; VISE isolate 2021, 09MAR06)
16 µg/mL: MIC ([1]; MRSA isolate 767, 22FEB06) | MIC ([1]; MRSA isolate 769, 22FEB06) | MIC ([1]; MRSA isolate 770, 22FEB06) | MIC ([1]; MRSA isolate 1017, 22FEB06) | MIC ([1]; MRSA isolate 1024, 22FEB06) | MIC ([1]; MRSA isolate 1025, 22FEB06) | MIC ([1]; MRSA isolate 1658, 03MAR06) | MIC ([1]; MRSA isolate 1659, 03MAR06) | MIC ([1]; MRSA isolate 2010, 24FEB06) | MIC ([4]; VISE isolate 2022, 03MAR06)

CN(C)[C@@H]1C(O)=C(C(N)=O)C(=O)[C@@]2(O)C(O)=C3C(=O)c4c(O)cccc4[C@@](C)(O)[C@H]3C[C@@H]12 [TE, tetracycline]
1 µg/mL: MIC ([1]; MRSA isolate 758, 03MAR06) | MIC ([1]; MRSA isolate 760, 03MAR06) | MIC ([1]; MRSA isolate 766, 22FEB06) | MIC ([1]; MRSA isolate 889, 24FEB06) | MIC ([1]; MRSA isolate 1012, 22FEB06) | MIC ([1]; MRSA isolate 1138, 22FEB06)
4 µg/mL: MIC ([1]; MRSA isolate 1010, 22FEB06)
> 16 µg/mL: MIC ([1]; MRSA isolate 757, 24FEB06) | MIC ([1]; MRSA isolate 769, 22FEB06) | MIC ([1]; MRSA isolate 1729, 03MAR06) | MIC ([1]; MRSA isolate 2009, 24FEB06) | MIC ([1]; MRSA isolate 2011, 24FEB06) | MIC [3, 9] | MIC [3, 13] | MIC ([4]; VISE isolate 2020, 09MAR06) | MIC ([6]; LRSA isolate 1725, 24FEB06)
0.06 µg/mL: MIC [3, 10]
0.5 to 2 µg/mL: MIC Range [5, 18]
2 µg/mL: MIC ([2]; VISA isolate 2012, 03MAR06) | MIC ([4]; VISE isolate 2022, 03MAR06) | MIC [5, 15] | MIC [5, 17] | MIC50 [5, 18]
0.5 µg/mL: MIC ([1]; MRSA isolate 758, 24FEB06) | MIC ([1]; MRSA isolate 760, 24FEB06) | MIC ([1]; MRSA isolate 763, 22FEB06) | MIC ([1]; MRSA isolate 765, 22FEB06) | MIC ([1]; MRSA isolate 767, 22FEB06) | MIC ([1]; MRSA isolate 768, 22FEB06) | MIC ([1]; MRSA isolate 770, 22FEB06) | MIC ([1]; MRSA isolate 771, 22FEB06) | MIC ([1]; MRSA isolate 772, 22FEB06) | MIC ([1]; MRSA isolate 773, 24FEB06) | MIC ([1]; MRSA isolate 774, 24FEB06) | MIC ([1]; MRSA isolate 775, 24FEB06) | MIC ([1]; MRSA isolate 776, 24FEB06) | MIC ([1]; MRSA isolate 777, 24FEB06) | MIC ([1]; MRSA isolate 886, 24FEB06) | MIC ([1]; MRSA isolate 887, 24FEB06) | MIC ([1]; MRSA isolate 888, 24FEB06) | MIC ([1]; MRSA isolate 1013, 22FEB06) | MIC ([1]; MRSA isolate 1014, 22FEB06) | MIC ([1]; MRSA isolate 1015, 22FEB06) | MIC ([1]; MRSA isolate 1016, 22FEB06) | MIC ([1]; MRSA isolate 1017, 22FEB06) | MIC ([1]; MRSA isolate 1021, 22FEB06) | MIC ([1]; MRSA isolate 1022, 22FEB06) | MIC ([1]; MRSA isolate 1023, 22FEB06) | MIC ([1]; MRSA isolate 1024, 22FEB06) | MIC ([1]; MRSA isolate 1025, 22FEB06) | MIC ([1]; MRSA isolate 1135, 22FEB06) | MIC ([1]; MRSA isolate 1136, 22FEB06) | MIC ([1]; MRSA isolate 1137, 22FEB06) | MIC ([1]; MRSA isolate 1222, 03MAR06) | MIC ([1]; MRSA isolate 1222, 24FEB06) | MIC ([1]; MRSA isolate 1658, 03MAR06) | MIC ([1]; MRSA isolate 1661, 03MAR06) | MIC ([1]; MRSA isolate 1730, 24FEB06) | MIC ([1]; MRSA isolate 2010, 24FEB06) | MIC50 [1] | MIC [3, 8] | MIC [3, 11] | MIC50 [3] | MIC ([4]; VISE isolate 2023, 03MAR06) | MIC50 [4, 14] | MIC [5, 16] | MIC ([6]; LRSA isolate 1651, 24FEB06) | MIC ([6]; LRSA isolate 1652, 24FEB06) | MIC50 [6, 19]
16 µg/mL: MIC ([1]; MRSA isolate 1004, 24FEB06) | MIC90 [1] | MIC [7]
0.25 µg/mL: MIC ([1]; MRSA isolate 778, 24FEB06) | MIC ([1]; MRSA isolate 1653, 03MAR06) | MIC ([1]; MRSA isolate 1659, 03MAR06) | MIC ([2]; VISA isolate 2018, 03MAR06) | MIC50 [2] | MIC [3, 12] | MIC ([4]; VISE isolate 2021, 09MAR06)
.25 to 2 µg/mL: MIC Range [2]
